Assay results reported in patent publication US20220323761A1, “METHOD FOR INDUCING HIBERNATION-LIKE STATE AND DEVICE SAME” (University of Tsukuba, priority 2019, published 2022).

Columns and labels:
adenosine A1 receptor = biological target: T1, adenosine A1 receptor (Mus musculus, UniProt Q60612); test: Metabolic state induced by IP CHA in wild-type mice; format: in vivo
T1 construct: endogenous in cells; host or cells: whole mouse, in vivo (intraperitoneal CHA)
T1 sequence (Q60612 1-326): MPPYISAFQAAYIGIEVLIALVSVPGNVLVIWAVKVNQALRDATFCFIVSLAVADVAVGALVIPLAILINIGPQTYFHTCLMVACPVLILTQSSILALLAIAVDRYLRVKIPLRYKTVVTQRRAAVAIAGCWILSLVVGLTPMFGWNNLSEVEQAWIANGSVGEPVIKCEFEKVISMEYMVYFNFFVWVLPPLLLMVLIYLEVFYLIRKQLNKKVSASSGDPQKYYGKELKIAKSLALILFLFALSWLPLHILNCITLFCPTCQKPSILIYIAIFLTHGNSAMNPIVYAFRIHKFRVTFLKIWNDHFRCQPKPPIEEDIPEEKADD
Excerpt: In order to record the core body temperature, oxygen consumption amount, EEG, ECG, and respiratory patterns, each animal was housed in a temperature controlled chamber (HC-100, Shin Factory or LP-400P-AR, Nippon Medical & Chemical Instruments Co., Ltd.). In order to continuously record the TB (intraperitoneal temperature), a telemetry temperature sensor (TA11TA-F10, DSI) was implanted into the animal's abdominal cavity under general inhalation anesthesia at least 7 days prior to the recording. The VO 2 and carbon dioxide discharge rate (VCO2) of the animal were continuously recorded using a respiratory gas analyzer (ARCO-2000 mass spectrometer, ARCO System). The respiratory quotient was calculated from the ratio of VCO2/VO2.
The Dreadd agonist CNO (clozapine N-oxide, Abcam, ab141704) was dissolved in physiological saline at a dose of 100 μg/mL, and the solution was frozen at −20° C. The CNO solution was thawed on site and then administered to each mouse intraperitoneally at a dose of 1 mg/kg. The adenosineAl receptor agonist CHA (N^6-cyclohexyl adenosine, Sigma-Aldrich, C9901) was dissolved in physiological saline at a concentration of 250 μg/mL, and the solution was administered intraperitoneally to each mouse at a dose of 2.5 mg/kg.

[1] = administered centrally; cited from earlier work

OC[C@H]1O[C@@H](n2cnc3c(NC4CCCCC4)ncnc32)[C@H](O)[C@@H]1O [CHA, N^6-cyclohexyl adenosine]
induction of hypothermic/hypometabolic state (adenosine A1 receptor; IP 2.5 mg/kg, wild-type mice): effectively induced a hypothermic/hypometabolic state | reaction to low TA through behavior (posture and shivering) or increase in VO2 (adenosine A1 receptor; TA 12° C., IP 2.5 mg/kg): did not react | TB and VO2 at lowered TA (adenosine A1 receptor; TA set to 12° C.): further reduced | TB compared with QIH (adenosine A1 receptor; at 20°): tends to be higher

pyroglutamylated RFamide peptide (QDEGSEATGFLPAAGEKTSGPLGNLAEELNGYSRKKGGFSFRF; QRF-amide; UniProt P83859 91-133, looked up) [Qrfp, hypothalamic neuropeptide, endogenous ligand of the orphan G-protein-coupled receptor hGPR103]
heart rate and blood pressure [1]: increase | sympathetic nerve outflow [1]: increases
